System: CD8^+T cells
Assay: Multifunctionality of CD8^+T cells of metastatic lung cancer patients (stage IV) after metformin treatment of PBMC (flow cytometer)
Assay type: cell-based, human
Conditions: for Decrease, IFNγ 1-cytokine-producing cell / Decrease, IFNγ/IL-2 2-cytokine-producing cell / Decrease, IFNγ/TNFα 2-cytokine-producing cell / Decrease, IFNγ/TNFα/IL2 3-cytokine-producing cell / Increase, IFNγ 1-cytokine-producing cell / Increase, IFNγ/IL-2 2-cytokine-producing cell / Increase, IFNγ/TNFα 2-cytokine-producing cell / Increase, IFNγ/TNFα/IL2 3-cytokine-producing cell / No Change, IFNγ 1-cytokine-producing cell / No Change, IFNγ/IL-2 2-cytokine-producing cell / No Change, IFNγ/TNFα 2-cytokine-producing cell / No Change, IFNγ/TNFα/IL2 3-cytokine-producing cell: Cancer Patients (stage IV)
Description: 1. Peripheral blood was obtained from a test subject, and PBMC was separated by a density-gradient centrifugation using a lymphocyte-separating reagent Ficoll-Paque® (GE Healthcare). 3 mL of Ficoll-Paque® was dispensed in a 15-mL tube. 8 mL of the peripheral blood was gently placed on the reagent. At this time, care should be taken not to mix Ficoll-Paque® with the peripheral blood. Centrifugation was performed at 400 g for 30 minutes, thereby separating PBMC. 2. The separated PBMC was preserved in a −150° C. freezer or liquid nitrogen using Bambang Car cell preservation liquid by adjusting the cell number to 2.0×10^6 cell/tube. 3. In the test, the thawed PBMC was cultured for 1 to 10 hours in the presence or absence of […]. The culture was performed using a 24-well plate, and the cell number was adjusted to about 5.0×10^5 cell/well. 4. The cells were collected after 1 to 10 hours, washed with medium, and cultured in the presence of a cell activation reagent (potent nanomolar activator of protein kinase C (PMA, 50 ng/mL), ionomycin (1 μM)) for 6 hours, thereby non-specifically stimulating T cells. At this time, BD Gorgi Stop™ was added to keep the produced cytokines inside the cells. 5. The cells were isolated and washed twice with a cell-staining buffer. First, staining of CD8, PD-1, Tim-3, which are molecules expressed on the T cell surface, was performed. In the staining, a staining buffer was added in an amount of 50 μL per sample. The culture was performed at 4° C. for 30 minutes. 6. The cells were collected and washed twice with a cell-staining buffer. 500 μL of BD Cytofix/Cytoperm was added and cultured at 4° C. for 30 minutes. 7. The cells were collected and washed twice with BD Perm/Wash™. Staining of cytokines IL-2, TNFα, and IFNγ was performed. In the staining, BD Perm/Wash™ was added in an amount of 50 μL per sample. The culture was performed at 4° C. for 30 minutes. 8. The cells were collected and washed twice with BD Perm/Wash™, and 200 μL of BD Perm/Wash™ was added. 9. Analysis was performed using a FACSCanto™ II flow cytometer (Becton, Dickinson and Company).
Among the PBMC treated with PMA/ionomycin in the method shown in (2) above, first, a gate was applied to CD8^+T cells using a FACSCanto™ II flow cytometer (Becton, Dickinson and Company), and then […] were removed by FSC-A and FSC-H. Using parameters FSC-A and SSC-A, a gate was applied to a lymphocyte group, thereby analyzing expression of PD-1 and Tim-3. Further, intracellular cytokines IFNγ, TNFα, and IL-2 were stained, and multifunctionality of CD8^+T cells contained in the PBMC was analyzed (FIG. 1).
This Example analyzed test results regarding recovery of multifunctionality of CD8^+T cells by metformin in 10 healthy subjects and five metastatic lung cancer patients (stage IV) by the same method as in Example 1. As in Table 3, in Table 3, in addition to the total CD8^+T cells (total CD8T), cytokine production abilities were confirmed in four kinds of CD8^+T cells, i.e., PD-1-positive, Tim-3-negative CD8^+T cells, PD-1-positive, Tim-3-positive CD8^+T cells, PD-1-negative, Tim-3-positive CD8^+T cells, and PD-1-negative, Tim-3-negative CD8^+T cells (Table 4). Cytokine production ability refers to cytokine production ratios of three kinds of cytokines (A), IFNγ/TNFα/IL-2, two kinds of cytokines (B), IFNγ/TNFα, two kinds of cytokines (C), FNγ/IL-2, and one kind of cytokine (D), IFNγ.

## CN(C)C(=N)N=C(N)N [metformin]
PD-1+, Tim-3+, patients/total
  Decrease, IFNγ 1-cytokine-producing cell: 1/5
  Decrease, IFNγ/IL-2 2-cytokine-producing cell: 1/5
  Decrease, IFNγ/TNFα 2-cytokine-producing cell: 1/5
  Decrease, IFNγ/TNFα/IL2 3-cytokine-producing cell: 0/5
  Increase, IFNγ 1-cytokine-producing cell: 1/5
  Increase, IFNγ/IL-2 2-cytokine-producing cell: 1/5
  Increase, IFNγ/TNFα 2-cytokine-producing cell: 1/5
  Increase, IFNγ/TNFα/IL2 3-cytokine-producing cell: 0/5
  No Change, IFNγ 1-cytokine-producing cell: 3/5
  No Change, IFNγ/IL-2 2-cytokine-producing cell: 3/5
  No Change, IFNγ/TNFα 2-cytokine-producing cell: 3/5
  No Change, IFNγ/TNFα/IL2 3-cytokine-producing cell: 5/5
PD-1+, Tim-3−, patients/total
  Decrease, IFNγ 1-cytokine-producing cell: 1/5
  Decrease, IFNγ/IL-2 2-cytokine-producing cell: 1/5
  Decrease, IFNγ/TNFα 2-cytokine-producing cell: 2/5
  Decrease, IFNγ/TNFα/IL2 3-cytokine-producing cell: 0/5
  Increase, IFNγ 1-cytokine-producing cell: 0/5
  Increase, IFNγ/IL-2 2-cytokine-producing cell: 4/5
  Increase, IFNγ/TNFα 2-cytokine-producing cell: 1/5
  Increase, IFNγ/TNFα/IL2 3-cytokine-producing cell: 4/5
  No Change, IFNγ 1-cytokine-producing cell: 4/5
  No Change, IFNγ/IL-2 2-cytokine-producing cell: 0/5
  No Change, IFNγ/TNFα 2-cytokine-producing cell: 2/5
  No Change, IFNγ/TNFα/IL2 3-cytokine-producing cell: 1/5
PD-1−, Tim-3+, patients/total
  Decrease, IFNγ 1-cytokine-producing cell: 2/5
  Decrease, IFNγ/IL-2 2-cytokine-producing cell: 3/5
  Decrease, IFNγ/TNFα 2-cytokine-producing cell: 2/5
  Decrease, IFNγ/TNFα/IL2 3-cytokine-producing cell: 0/5
  Increase, IFNγ 1-cytokine-producing cell: 3/5
  Increase, IFNγ/IL-2 2-cytokine-producing cell: 0/5
  Increase, IFNγ/TNFα 2-cytokine-producing cell: 1/5
  Increase, IFNγ/TNFα/IL2 3-cytokine-producing cell: 0/5
  No Change, IFNγ 1-cytokine-producing cell: 0/5
  No Change, IFNγ/IL-2 2-cytokine-producing cell: 2/5
  No Change, IFNγ/TNFα 2-cytokine-producing cell: 2/5
  No Change, IFNγ/TNFα/IL2 3-cytokine-producing cell: 5/5
PD-1−, Tim-3−, patients/total
  Decrease, IFNγ 1-cytokine-producing cell: 2/5
  Decrease, IFNγ/IL-2 2-cytokine-producing cell: 2/5
  Decrease, IFNγ/TNFα 2-cytokine-producing cell: 2/5
  Decrease, IFNγ/TNFα/IL2 3-cytokine-producing cell: 0/5
  Increase, IFNγ 1-cytokine-producing cell: 1/5
  Increase, IFNγ/IL-2 2-cytokine-producing cell: 1/5
  Increase, IFNγ/TNFα 2-cytokine-producing cell: 1/5
  Increase, IFNγ/TNFα/IL2 3-cytokine-producing cell: 2/5
  No Change, IFNγ 1-cytokine-producing cell: 2/5
  No Change, IFNγ/IL-2 2-cytokine-producing cell: 2/5
  No Change, IFNγ/TNFα/IL2 3-cytokine-producing cell: 3/5
Total CD8T, patients/total
  Decrease, IFNγ 1-cytokine-producing cell: 3/5
  Decrease, IFNγ/IL-2 2-cytokine-producing cell: 0/5
  Decrease, IFNγ/TNFα 2-cytokine-producing cell: 4/5
  Decrease, IFNγ/TNFα/IL2 3-cytokine-producing cell: 0/5
  Increase, IFNγ 1-cytokine-producing cell: 0/5
  Increase, IFNγ/IL-2 2-cytokine-producing cell: 1/5
  Increase, IFNγ/TNFα 2-cytokine-producing cell: 1/5
  Increase, IFNγ/TNFα/IL2 3-cytokine-producing cell: 1/5
  No Change, IFNγ 1-cytokine-producing cell: 2/5
  No Change, IFNγ/IL-2 2-cytokine-producing cell: 4/5
  No Change, IFNγ/TNFα 2-cytokine-producing cell: 0/5
  No Change, IFNγ/TNFα/IL2 3-cytokine-producing cell: 4/5
Total CD8T, Patients (stage IV)
  Increase + No Change, IFNγ/TNFα/IL2, share of patients: 100%
Total CD8T, Patients (stage IV), patients/total
  Increase + No Change, IFNγ/TNFα/IL2: 5/5
Cancer patients (stage IV)
  decrease in multifunctionality by the metformin treatment (three kinds of cytokines): very small (zero)

Reference: US20170231929A1, “METHOD FOR ENHANCING IMMUNE CELL FUNCTION AND METHOD FOR ASSESSING IMMUNE CELL MULTIFUNCTIONALITY” (NATIONAL UNIVERSITY CORPORATION OKAYAMA UNIVERSITY, priority 2014, published 2017)
